Experimental data reported in paper PMC11375702, “Early Preclinical Studies of Ergosterol Peroxide and Biological Evaluation of Its Derivatives” (ACS Omega, 2024).
Read-outs that look alike come from different tables or passages of the source.

Assays:
CYP3A4 = biological target: T1, CYP3A4 (Homo sapiens, UniProt P08684); test: Microsomal CYP inhibition assay, CYP3A4; assay type: in vitro ADME; conditions: pooled human liver microsomes
T1 construct: from tissue; host or cells: pooled human liver microsomes
Experimental: (§1) To assess potential cardiotoxicity, we performed the human ether-go-go-related gene (hERG) inhibition assay. […] Briefly, EP was tested at six concentrations (cumulative concentration–response). […] For hepatotoxicity determination, we performed the microsomal CYP inhibition assay. Briefly, EP was incubated at seven increasing concentrations with pooled human liver microsomes. […] The supernatants were analyzed by LC-MS/MS.

CYP2C9 = biological target: T2, CYP2C9 (Homo sapiens, UniProt P11712); test: Microsomal CYP inhibition assay, CYP2C9; assay type: in vitro ADME
T2 construct: from tissue; host or cells: pooled human liver microsomes
Experimental: as §1

[1] = Plasma stability assay (mouse)
Experimental: Briefly, pooled blood from 3 animals for experiment (male Balb/c 6–8w from the division of laboratory animal medicine in-house breeding colony) was collected, and the heparinized plasma was prepared. Plasma and test compounds were added to individual wells of a 96-well microtiter plate. Compounds were incubated at 37 °C for the provided time points. All tests were performed in triplicates. The test compound was incubated with plasma at six different time points. The reaction was terminated by methanol containing an internal standard. After centrifugation, the concentration of the test compound in the supernatant was quantified by LC-MS/MS.
Plasma stability assay: Briefly, pooled blood from 3 animals for experiment (male Balb/c 6-8w
from the division of laboratory animal medicine in-house breeding colony) was collected, and
the heparinized plasma was prepared. Plasma and test compounds were added to the individual
wells of a 96-well microtiter plate. Compounds were incubated at 37°C for the provided time
points. All tests were performed in triplicates. Then, the test compound was incubated with
plasma at six different time points. The reaction was terminated by the addition of methanol
containing an internal standard. After centrifugation, the concentration of the test compound in
the supernatant was quantified by LC-MS/MS. The percentage of test compound remaining at
compounds are known to be metabolized by plasma esterases,1 and were also incubated with
each batch of test compound.
A standard protocol and MS method was used for the plasma stability experiment. The extraction
procedure for plasma/tissue samples and the spiked plasma/tissue calibration standards were
identical: A 25 µL of study sample or spiked plasma/tissue calibration standard was added to
individual pre-labeled micro-centrifuge tubes followed by 100 µL of internal standard prepared
in Acetonitrile (Albendazole, 500 ng/mL) was added except for blank, where 100 µL of
Acetonitrile was added. Samples were vortexed for 5 minutes. Samples were centrifuged for 5
minutes at a speed of 4000 rpm at 4°C. Following centrifugation, 100 µL of clear supernatant
was transferred in 96 well plates and analyzed using LC-MS/MS mode. The LC system
comprises of a binary pump that can mix two mobile phases: A = Water+0.1% formic acid; B =
acetonitrile +0.1%formic acid. The system was operated in gradient mode using a 6 minute
min, 10-90% A to B in 5.5-6 min, and then hold at this gradient, using a Phenomenex Luna, 150
X 4.6 mm, 5 µm column. Source Parameter: positive, Ion Spray Voltage 5500, Temperature
550C, interface heater on.

[2] = test system: MDA-MB-231-GFP mammary fat pad tumors; test: In vivo efficacy, MDA-MB-231-GFP mammary fat pad tumors; set-up: species or system mouse; conditions: 100 mg/kg BW i.p. 3 times per week
Experimental: Finally, to test the effect of EP on breast cancer progression in vivo, we established mammary fat pad tumors from GFP-tagged TNBC MDA-MB-231 cancer cells as we have previously described.[47] Mice were injected with TNBC cells diluted in Matrigel in their fourth mammary fat pad, and when tumors were palpable, the mice were injected via intraperitoneal (i.p.) 3 times per week with vehicle (10% ethanol) or 100 mg/kg BW of EP. […] The progression of the tumor was quantified by fluorescence image analysis obtained on a weekly basis.
Female (3-week-old) severe combined immunodeficient (SCID) Hairless Outbred (SHO) mice (Charles River Laboratories, Wilmington, MA) were segregated into two groups (n = 3 mice/group) and housed under specific pathogen-free conditions. The mice received an autoclaved AIN 76-A phytoestrogen-free diet (Tek Global, Harlan Teklad, Madison, WI) and water ad libitum. Cell inoculations were performed under isoflurane inhalation as we previously described[47] to produce orthotopic tumors as described in the provided reference.[54] […] GFP-tagged cells were monitored weekly for the duration of the study using an iBox Explorer^2 (UVP, CA) animal imaging system. […] Tumor fluorescence intensities were analyzed using ImageJ software (National Institutes of Health, Bethesda, MD). […]

Caco-2 cells = test: Caco-2 permeability assay; assay type: in vitro ADME; conditions: Caco-2
Experimental: It was performed in the 96-well Transwell system with a modified method.[36] Caco-2 cells were maintained at 37 °C in a humidified incubator with an atmosphere of 5% CO2. The cells were cultured in MEM containing 20% FBS in […], 100 units/mL penicillin, and 100 μg/mL of streptomycin. The Caco-2 cells were seeded onto inserts of a 96-well plate at a density of 0.5 × 10^5 cells/insert and cultured in the MEM containing 20% FBS for 7 days. Each cultured monolayer on the 96-well plate was washed twice with HBSS/HEPES (10 mM, pH 7.4). The permeability assay was initiated by the addition of each compound solution (10 μmol/L) into inserts (apical side, A) or receivers (basolateral side, B). The Caco-2 cell monolayers were incubated for 2 h at 37 °C. Fractions were collected from receivers (if apical to basal permeability) or inserts (if basal to apical permeability), and concentrations were assessed by UPLC/MS (Waters; Milford, MA). All compounds were tested in triplicates. The A → B (or B → A) apparent permeability coefficients ([…]) of each compound were calculated using the equation Pappa = dQ/dt × 1/AC0. The flux of a drug across the monolayer is dQ/dt (μmol/s). The initial drug concentration on the apical side is C0 (μmol/L). The surface area of the monolayer is A (cm^2).

CYP1A2 = biological target: T3, CYP1A2 (Homo sapiens, UniProt P05177); test: Microsomal CYP inhibition assay, CYP1A2; assay type: in vitro ADME; conditions: pooled human liver microsomes, probe tacrine
T3 construct: from tissue; host or cells: pooled human liver microsomes
T3 sequence (P05177 1-516): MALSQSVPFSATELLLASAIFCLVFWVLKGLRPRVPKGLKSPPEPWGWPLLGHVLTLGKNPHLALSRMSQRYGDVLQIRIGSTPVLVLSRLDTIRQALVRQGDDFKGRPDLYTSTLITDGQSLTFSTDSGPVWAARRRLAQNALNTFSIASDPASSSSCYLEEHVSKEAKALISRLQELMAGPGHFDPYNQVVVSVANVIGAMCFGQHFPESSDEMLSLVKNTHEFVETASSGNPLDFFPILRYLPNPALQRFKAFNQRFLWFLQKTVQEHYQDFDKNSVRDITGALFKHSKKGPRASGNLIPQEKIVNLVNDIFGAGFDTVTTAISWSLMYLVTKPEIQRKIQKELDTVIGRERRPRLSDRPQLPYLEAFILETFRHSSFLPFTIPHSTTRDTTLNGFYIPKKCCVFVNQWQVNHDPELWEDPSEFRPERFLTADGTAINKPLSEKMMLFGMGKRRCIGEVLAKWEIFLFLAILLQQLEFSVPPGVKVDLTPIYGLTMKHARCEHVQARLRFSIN
Experimental: as §1

hERG = biological target: T4, hERG (Homo sapiens, UniProt Q12809); test: hERG channel inhibition assay (QPatch HTX, HEK-293); assay type: cell-based; conditions: human, HEK-293 cells that express hERG
T4 construct: expressed in transfected cells; host or cells: HEK-293
Experimental: as §1

hERG cardiac ion channel = biological target: T5, hERG cardiac ion channel (Homo sapiens, UniProt Q12809); test: as above; assay type: cell-based; conditions: hERG tail-current; read-out: hERG pIC50 (converted)
T5 construct: expressed in transfected cells; host or cells: HEK-293
Experimental: as §1

CYP2C19 = biological target: T6, CYP2C19 (Homo sapiens, UniProt P33261); test: Microsomal CYP inhibition assay, CYP2C19; assay type: in vitro ADME; conditions: pooled human liver microsomes, probe mephenytoin; read-out: CYP-2C19 inhibition
T6 construct: from tissue; host or cells: pooled human liver microsomes
Experimental: as §1

T4 sequence (Q12809 whole entry): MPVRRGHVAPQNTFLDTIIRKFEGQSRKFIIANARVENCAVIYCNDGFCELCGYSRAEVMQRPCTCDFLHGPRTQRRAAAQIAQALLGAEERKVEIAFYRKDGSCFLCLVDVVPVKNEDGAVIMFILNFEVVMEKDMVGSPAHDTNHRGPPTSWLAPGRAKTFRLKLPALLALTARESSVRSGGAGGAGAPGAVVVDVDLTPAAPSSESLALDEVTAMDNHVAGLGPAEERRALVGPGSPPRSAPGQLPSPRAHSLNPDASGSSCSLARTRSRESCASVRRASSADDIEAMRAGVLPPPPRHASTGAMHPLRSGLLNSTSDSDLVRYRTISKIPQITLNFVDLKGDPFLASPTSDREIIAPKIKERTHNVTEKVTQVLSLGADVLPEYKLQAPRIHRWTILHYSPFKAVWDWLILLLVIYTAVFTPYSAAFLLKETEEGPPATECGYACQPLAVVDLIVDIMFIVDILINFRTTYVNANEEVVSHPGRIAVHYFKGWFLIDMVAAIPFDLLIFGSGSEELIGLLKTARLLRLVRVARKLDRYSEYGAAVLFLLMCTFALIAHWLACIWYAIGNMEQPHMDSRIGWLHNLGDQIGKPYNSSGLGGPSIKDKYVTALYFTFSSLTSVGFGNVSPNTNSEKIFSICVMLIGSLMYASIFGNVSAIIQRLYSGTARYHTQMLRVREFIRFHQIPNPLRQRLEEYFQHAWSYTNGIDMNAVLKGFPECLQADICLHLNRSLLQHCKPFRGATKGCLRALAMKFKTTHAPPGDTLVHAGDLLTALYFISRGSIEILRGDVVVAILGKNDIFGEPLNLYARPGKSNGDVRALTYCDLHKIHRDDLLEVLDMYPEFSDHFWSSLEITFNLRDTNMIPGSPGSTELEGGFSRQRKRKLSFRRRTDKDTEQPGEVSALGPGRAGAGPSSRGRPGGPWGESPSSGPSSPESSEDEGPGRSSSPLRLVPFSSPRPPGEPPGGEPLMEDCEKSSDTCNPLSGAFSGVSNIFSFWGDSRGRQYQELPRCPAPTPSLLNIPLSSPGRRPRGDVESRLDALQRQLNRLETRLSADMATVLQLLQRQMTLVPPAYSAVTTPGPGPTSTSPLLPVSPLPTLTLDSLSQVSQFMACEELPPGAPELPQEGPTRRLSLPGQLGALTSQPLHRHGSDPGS
T1 sequence (P08684 whole entry): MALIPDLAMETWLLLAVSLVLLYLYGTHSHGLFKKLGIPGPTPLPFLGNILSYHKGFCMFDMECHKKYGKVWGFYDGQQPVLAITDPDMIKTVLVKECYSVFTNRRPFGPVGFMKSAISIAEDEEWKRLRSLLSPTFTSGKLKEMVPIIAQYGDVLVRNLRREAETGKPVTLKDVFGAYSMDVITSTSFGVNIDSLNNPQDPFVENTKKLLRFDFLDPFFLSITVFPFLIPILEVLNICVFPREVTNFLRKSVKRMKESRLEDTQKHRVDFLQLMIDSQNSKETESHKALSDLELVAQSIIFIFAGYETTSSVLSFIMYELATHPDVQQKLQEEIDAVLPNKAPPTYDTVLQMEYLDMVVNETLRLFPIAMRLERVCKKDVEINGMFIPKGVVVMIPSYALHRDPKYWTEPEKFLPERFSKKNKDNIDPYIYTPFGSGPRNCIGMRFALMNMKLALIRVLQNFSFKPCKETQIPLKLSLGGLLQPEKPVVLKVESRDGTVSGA
T5 sequence (Q12809 whole entry): as the sequence (Q12809 whole entry) above
T6 sequence (P33261 whole entry): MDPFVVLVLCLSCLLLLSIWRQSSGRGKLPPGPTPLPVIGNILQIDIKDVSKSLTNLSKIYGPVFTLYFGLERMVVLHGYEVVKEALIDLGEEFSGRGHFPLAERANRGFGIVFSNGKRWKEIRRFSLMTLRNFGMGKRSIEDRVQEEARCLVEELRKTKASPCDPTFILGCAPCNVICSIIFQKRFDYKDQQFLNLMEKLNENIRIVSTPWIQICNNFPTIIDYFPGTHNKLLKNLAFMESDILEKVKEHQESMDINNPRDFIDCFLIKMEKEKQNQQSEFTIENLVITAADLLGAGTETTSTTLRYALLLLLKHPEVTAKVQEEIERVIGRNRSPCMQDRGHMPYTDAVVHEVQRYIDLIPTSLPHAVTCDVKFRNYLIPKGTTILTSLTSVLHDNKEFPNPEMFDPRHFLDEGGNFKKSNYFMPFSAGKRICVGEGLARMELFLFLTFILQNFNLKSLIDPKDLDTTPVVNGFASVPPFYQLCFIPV
T2 sequence (P11712 whole entry): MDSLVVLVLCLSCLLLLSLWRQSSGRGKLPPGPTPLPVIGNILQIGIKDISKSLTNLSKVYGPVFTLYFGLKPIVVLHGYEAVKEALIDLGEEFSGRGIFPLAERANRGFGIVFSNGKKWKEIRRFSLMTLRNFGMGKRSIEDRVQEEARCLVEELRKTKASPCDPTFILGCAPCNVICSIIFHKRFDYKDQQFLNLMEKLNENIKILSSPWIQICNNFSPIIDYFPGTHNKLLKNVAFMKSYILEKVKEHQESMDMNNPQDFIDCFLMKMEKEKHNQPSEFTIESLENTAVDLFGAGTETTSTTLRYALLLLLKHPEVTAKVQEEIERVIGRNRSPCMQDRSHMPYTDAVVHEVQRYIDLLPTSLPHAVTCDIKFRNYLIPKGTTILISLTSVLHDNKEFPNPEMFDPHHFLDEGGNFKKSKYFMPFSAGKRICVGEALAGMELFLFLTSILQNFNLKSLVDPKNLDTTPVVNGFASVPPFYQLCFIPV

Compound: CC(C)[C@@H](C)/C=C/[C@@H](C)[C@H]1CC[C@@H]2[C@]1(C)CC[C@H]1[C@]23C=C[C@]2(C[C@@H](O)CC[C@]12C)OO3 [Compound 2, Ergosterol peroxide]
- IC50 (CYP3A4; probe midazolam, read-out: CYP3A4-Midazolam inhibition): > 25 µM
- IC50 (CYP3A4; probe testosterone, read-out: CYP3A4-Testos-terone inhibition): > 25 µM
- IC50 (CYP2C9): > 25 µM
- half-life ([1]; male, Balb/c, mouse, plasma): > 48 h
- plasma stability ([1]; species not specified): > 48 h
- tumor growth ([2]; by week 3, P < 0.05): decreases tumor growth
- tumor size reduction ([2]; end of study, vs vehicle): ~17%
- efflux ratio (B2A/A2B) (Caco-2 cells): 0.93
- IC50 (CYP1A2): 16.3 µM
- inhibition at 0.1 µM (hERG; 0.1 μM, first addition): 1.99%
- inhibition at 0.3 µM (hERG; 0.3 μM, second addition): 2.99%
- inhibition at 1 µM (hERG; 1 μM, 3rd addition): 3.04%
- inhibition at 3 µM (hERG; 3 μM, fourth addition): 6.21%
- inhibition at 10 µM (hERG; 10 μM, fifth addition): 10.1%
- inhibition at 30 µM (hERG; 30 μM, sixth addition): 18.7%
- IC50 (hERG cardiac ion channel): > 30.2 µM
- IC50 (CYP2C19): 19.9 µM
